Measured values published in patent US7592336B2, “Hepatitis C virus inhibitors” (Bristol-Myers Squibb Company, priority 2005, dated 2009).
Where two headings read alike, the source gives them in different places.

System: HCV replicon in HUH-7 cells
Test: HCV replicon FRET assay
Assay type: cell-based, HCV strain 1b
Settings: Hepatitis C virus
Text: An HCV replicon whole cell system was established as described by Lohmann V, Korner F, Koch J, Herian U, Theilmann L, Bartenschlager R., Science 285(5424):110-3 (1999). This system enabled us to evaluate the effects of our HCV Protease compounds on HCV RNA replication. Briefly, using the HCV strain 1b sequence described in the Lohmann paper (Assession number: AJ238799), an HCV cDNA was synthesized by Operon Technologies, Inc. (Alameda, Calif.), and the full-length replicon was then assembled in plasmid pGem9zf(+) (Promega, Madison, Wis.) using standard molecular biology techniques. The replicon consists of (i) the HCV 5′ UTR fused to the first 12 amino acids of the capsid protein, (ii) the neomycin phosphotransferase gene (neo), (iii) the IRES from encephalomyocarditis virus (EMCV), and (iv) HCV NS3 to NS5B genes and the HCV 3′ UTR. Plasmid DNAs were linearized with ScaI and RNA transcripts were synthesized in vitro using the T7 MegaScript transcription kit (Ambion, Austin, Tex.) according to manufacturer's directions. In vitro transcripts of the cDNA were transfected into the human hepatoma cell line, HUH-7. […] Resulting cell lines were characterized for positive and negative strand RNA production and protein production over time.
The HCV replicon FRET assay was developed to monitor the inhibitory effects of compounds described in the disclosure on HCV viral replication. HUH-7 cells, constitutively expressing the HCV replicon, were grown in Dulbecco's Modified Eagle Media (DMEM) (Gibco-BRL) containing 10% Fetal calf serum (FCS) (Sigma) and 1 mg/ml G418 (Gibco-BRL). Cells were seeded the night before (1.5×10^4 cells/well) in 96-well tissue-culture sterile plates. Compound and no compound controls were prepared in DMEM containing 4% FCS, 1:100 Penicillin/Streptomysin (Gibco-BRL), 1:100 L-glutamine and 5% DMSO in the dilution plate (0.5% DMSO final concentration in the assay). Compound/DMSO mixes were added to the cells and incubated for 4 days at 37° C. After 4 days, cells were first assessed for cytotoxicity using alamar Blue (Trek Diagnotstic Systems) for a CC50 reading. The toxicity of compound (CC50) was determined by adding 1/10th volume of alamar Blue to the media incubating the cells. After 4 h, the fluorescence signal from each well was read, with an excitation wavelength at 530 nm and an emission wavelength of 580 nm, using the Cytofluor Series 4000 (Perspective Biosystems). Plates were then rinsed thoroughly with Phosphate-Buffered Saline (PBS) (3 times 150 μl). The cells were lysed with 25 μl of a lysis assay reagent containing an HCV protease substrate (5× cell Luciferase cell culture lysis reagent (Promega #E153A) diluted to 1× with distilled water, NaCl added to 150 mM final, the FRET peptide substrate (as described for the enzyme assay above) diluted to 10 μM final from a 2 mM stock in 100% DMSO. […]. The plate was then placed into the Cytofluor 4000 instrument which had been set to 340 nm excitation/490 nm emission, automatic mode for 21 cycles and the plate read in a kinetic mode. EC50 determinations were carried out as described for the IC50 determinations.

In the case of `C=C[C@@H]1C[C@]1(NC(=O)[C@@H]1C[C@@](O)(c2ccc(-c3ccccc3)cc2)CN1C(=O)[C@@H](NC(=O)OC(C)(C)C)C(C)(C)C)C(=O)NS(=O)(=O)C1CC1` [Compound 3], the EC50 (96 h, HUH-7 replicon cells, 4 days, read-out: EC50 in the replicon FRET assay) is reported as 28 nM and the EC50 (Huh-7, HCV replicon cell assay, read-out: Activity Range (EC50)) is reported as 10 to 1000 nM.
